Experiment: Henry solubility constant Hcp at 310 K (mol/(m3 Pa))
Conditions: reference: Guitart et al. (1989)

Row | Structure (SMILES) | Henry solubility constant Hcp at 310 K
1 | CC(Cl)(Cl)Cl [1,1,1-trichloroethane] | 0.00032
2 | FC(F)OC(F)(F)C(F)Cl (configuration not stated) [2-chloro-1,1,2-trifluoroethyl difluoromethyl ether] | 0.00027
3 | c1ccccc1 [benzene] | 0.002
4 | C1CCCCC1 [cyclohexane] | 3.4e-05
5 | C1CC1 [cyclopropane] | 7.8e-05
6 | CCOCC [diethyl ether] | 0.0063
7 | CCOC(C)=O [ethyl ethanoate] | 0.043
8 | CCCCCCC [heptane] | 6e-06
9 | CCCCCC [hexane] | 6.7e-06
10 | CC(C)=O [propanone] | 0.12
11 | ClC=C(Cl)Cl [trichloroethene] | 0.00055

Now from value to compound:

Row | Henry solubility constant Hcp at 310 K | Structure (SMILES)
12 | 0.00028 | FC(F)(F)C(Cl)Br (configuration not stated) [1-bromo-1-chloro-2,2,2-trifluoroethane]
13 | 4.6e-06 | CC(C)CC(C)(C)C [2,2,4-trimethylpentane]
14 | 8e-06 | CCCC [butane]
15 | 0.0034 | ClCCl [dichloromethane]
16 | 0.0028 | CC(C)OC(C)C [diisopropyl ether]
17 | 1.4e-06 | FS(F)(F)(F)(F)F [sulfur hexafluoride]
